Laboratory results from PMC7419506, “KN3014, a piperidine-containing small compound, inhibits auto-secretion of IL-1β from PBMCs in a patient with Muckle–Wells syndrome” (Scientific Reports, 2020).

Biological target: T1, ASC (Homo sapiens, UniProt Q96P20+Q9ULZ3)
T1 construct: gene PYCARD; FLAG-ASC-PYD (N-terminal FLAG-tagged pyrin domain of ASC); with NLRP3 (NLRP3-FL-Btn, C-terminal biotinylated full-length)
Test: ALPHA-screen protein-protein interaction inhibition, wheat germ cell-free synthesized proteins
Format: binding
From the text: ALPHA-screen protein-protein interaction inhibition, wheat germ cell-free synthesized proteins on ASC | The interaction between NLRP3-FL-Btn and FLAG-ASC-PYD was disrupted by both KN3014 and KN8311 in a dose-dependent manner.

T1 sequence (Q9ULZ3 1-91 limits assumed): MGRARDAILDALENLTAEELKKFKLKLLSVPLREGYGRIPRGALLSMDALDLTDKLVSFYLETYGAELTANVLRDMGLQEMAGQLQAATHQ
T1 sequence (Q96P20 whole entry, the tested form may be a part): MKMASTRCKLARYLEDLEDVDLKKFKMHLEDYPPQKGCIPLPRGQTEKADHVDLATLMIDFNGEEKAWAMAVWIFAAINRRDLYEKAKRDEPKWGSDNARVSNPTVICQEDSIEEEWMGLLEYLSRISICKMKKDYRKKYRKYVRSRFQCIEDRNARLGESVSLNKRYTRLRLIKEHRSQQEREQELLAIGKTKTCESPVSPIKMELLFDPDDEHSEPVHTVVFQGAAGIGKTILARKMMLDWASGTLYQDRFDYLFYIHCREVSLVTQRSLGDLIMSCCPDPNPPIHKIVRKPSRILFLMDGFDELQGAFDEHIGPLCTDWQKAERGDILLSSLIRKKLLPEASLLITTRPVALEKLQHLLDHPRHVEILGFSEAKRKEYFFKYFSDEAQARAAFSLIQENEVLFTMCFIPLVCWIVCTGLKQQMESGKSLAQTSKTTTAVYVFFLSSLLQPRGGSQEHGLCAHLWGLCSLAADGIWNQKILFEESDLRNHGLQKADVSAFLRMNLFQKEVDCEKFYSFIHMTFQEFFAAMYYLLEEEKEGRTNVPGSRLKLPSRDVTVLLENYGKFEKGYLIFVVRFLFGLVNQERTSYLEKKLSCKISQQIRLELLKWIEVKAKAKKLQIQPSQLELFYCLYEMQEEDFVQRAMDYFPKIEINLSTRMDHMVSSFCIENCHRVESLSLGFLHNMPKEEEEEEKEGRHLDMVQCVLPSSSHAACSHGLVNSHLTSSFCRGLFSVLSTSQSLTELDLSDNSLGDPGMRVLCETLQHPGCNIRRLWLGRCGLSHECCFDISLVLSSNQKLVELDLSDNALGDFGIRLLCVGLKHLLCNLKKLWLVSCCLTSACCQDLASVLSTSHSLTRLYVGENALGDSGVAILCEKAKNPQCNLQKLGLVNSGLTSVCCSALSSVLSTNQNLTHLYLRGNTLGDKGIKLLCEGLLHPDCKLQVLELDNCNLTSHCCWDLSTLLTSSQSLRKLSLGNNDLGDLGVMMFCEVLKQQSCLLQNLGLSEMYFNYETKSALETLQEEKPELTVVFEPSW

IC50: 14.6 µM
Compound: Cc1ccccc1OCC(=O)NCC(c1ccc2c(c1)CCCN2C)N1CCCCC1 (stereo not shown) [KN3014, N-(2-(1-methyl-1,2,3,4-tetrahydroquinolin-6-yl)-2-(piperidin-1-yl)ethyl)-2-(o-tolyloxy)acetamide]
